# Measured values as given in patent US11208399B2, “NLRP3 inflammasome inhibitors” (Novartis AG, priority 2019, dated 2021).
# Where a name gives a salt, the structure may show the parent alone.
# Tested on: NF-kB-dependent TNF-α secretion
# Assay: TNF-α secretion assay in THP-1 cells (counter screen, HTRF)
# Type: cell-based
# Settings: Homo sapiens, Pam3CSK4-stimulated, 3 hours
# Protocol: Monocytic THP-1 cells were maintained according to providers' instructions in RPMI media as described above. […] Experimental compounds were prepared and added as described above. TNF-α secretion was triggered by the addition of either 1 μg/mL LPS (Sigma, #L4391) or 100 ng/mL Pam3CSK4 (Invivogen, #tlrl-pms) depending on the experiment, and cells were incubated for 3 hours. 10 μL supernatant was removed, and TNF-α levels were monitored using an HTRF assay (CisBio, #62TNFPEC) according to manufacturers' instructions. Viability was monitored as described above.
# IC50 values were calculated from the plot of percentage of inhibition versus the inhibitor concentration by a logistics fit according to: y=A2+(A1−A2)/(1+(x/IC50)^p) where y is the %-inhibition at the inhibitor concentration, x. A1 is the lowest inhibition value, i.e. 0%, and A2 the maximum inhibition value, i.e. 100%. The exponent, p, is the Hill coefficient. The curve fitting was conducted with an internally developed software suite. […]
row,Structure (SMILES),IC50 [µM]
1,"Cc1cc(C(F)(F)F)cc(O)c1-c1ccc(N[C@@H]2C[C@H](O)CN(C)C2)nn1 [Ex 97, (3S,5R)-5-((6-(2-Hydroxy-6-methyl-4-(trifluoromethyl)phenyl)pyridazin-3-yl)amino)-1-methylpiperidin-3-ol]",> 100
2,"Oc1cc(Cl)cc(Cl)c1-c1ccc(NCC(F)(F)F)nn1 [Ex 27, 3,5-Dichloro-2-(6-((2,2,2-trifluoroethyl)amino)pyridazin-3-yl)phenol]",> 100
3,"Cc1cc(C(F)(F)F)cc(O)c1-c1ccc(N[C@@H]2CCCN(CCO)C2)nn1 [Ex 6, (R)-2-(6-((1-(2-Hydroxyethyl)piperidin-3-yl)amino)pyridazin-3-yl)-3-methyl-5-(trifluoromethyl)phenol]",> 100
4,"CN1CCC[C@@H](Nc2ccc(-c3c(O)cc(C(F)(F)F)cc3C(F)(F)F)nn2)C1 [Ex 39, (R)-2-(6-((1-Methylpiperidin-3-yl)amino)pyridazin-3-yl)-3,5-bis(trifluoromethyl)phenol]",> 100
5,"CN1CCC[C@@H](Nc2ccc(-c3c(O)cc(Cl)cc3Cl)nn2)C1 [Ex 45, (R)-3,5-Dichloro-2-(6-((1-methylpiperidin-3-yl)amino)pyridazin-3-yl)phenol TFA-salt]",> 100
6,"Oc1cc(Cl)cc(Cl)c1-c1ccc(NC2CC2)nn1 [Ex 44, 3,5-Dichloro-2-(6-(cyclopropylamino)pyridazin-3-yl)phenol]",> 100
7,"Cc1cc(C(F)(F)F)cc(O)c1-c1ccc(NC2CNCC(F)(F)C2)nn1 (centres unmarked) [Ex 9, 2-(6-((5,5-Difluoropiperidin-3-yl)amino)pyridazin-3-yl)-3-methyl-5-(trifluoromethyl)phenol]",> 100
8,"Cc1cc(C(F)(F)F)cc(O)c1-c1ccc(N[C@H]2CC[C@@H](CO)N(C)C2)nn1 [Ex 87b, 2-(6-(((3S,6S)-6-(Hydroxymethyl)-1-methylpiperidin-3-yl)amino)pyridazin-3-yl)-3-methyl-5-(trifluoromethyl)phenol]",77
9,"CN1CCC[C@@H](Nc2cc(C(F)(F)F)c(-c3ccc(C(F)(F)F)cc3O)nn2)C1 [Ex 53, (R)-2-(6-((1-Methylpiperidin-3-yl)amino)-4-(trifluoromethyl)pyridazin-3-yl)-5-(trifluoromethyl)phenol]",> 33
10,"Cc1cc(C(F)(F)F)cc(O)c1-c1ccc(N[C@@H]2CCCN(C)C2)nn1 [Ex 12, (R)-3-Methyl-2-(6-((1-methylpiperidin-3-yl)amino)pyridazin-3-yl)-5-(trifluoromethyl)phenol]",> 100
11,"Cc1cc(-c2c(C)cc(C(F)(F)F)cc2O)nnc1N[C@@H]1CCCN(C)C1 [Ex 5, (R)-3-Methyl-2-(5-methyl-6-((1-methylpiperidin-3-yl)amino)pyridazin-3-yl)-5-(trifluoromethyl)phenol]",> 33
12,"Cc1cc(C(F)(F)F)cc(O)c1-c1ccc(N[C@H]2CCCN(C)C2)nn1 [Ex 36, (S)-3-Methyl-2-(6-((1-methylpiperidin-3-yl)amino)pyridazin-3-yl)-5-(trifluoromethyl)phenol]",> 100
13,"Cc1cc(C(F)(F)F)cc(O)c1-c1cc(C(F)(F)F)c(N[C@@H]2CCCN(C)C2)nn1 [Ex 64, (R)-3-Methyl-2-(6-((1-methylpiperidin-3-yl)amino)-5-(trifluoromethyl)pyridazin-3-yl)-5-(trifluoromethyl)phenol]",> 100
14,"Cc1cc(C(F)(F)F)cc(O)c1-c1ccc(N[C@@H]2CC[C@H](CO)N(C)C2)nn1 [Ex 87a, 2-(6-(((3R,6R)-6-(Hydroxymethyl)-1-methylpiperidin-3-yl)amino)pyridazin-3-yl)-3-methyl-5-(trifluoromethyl)phenol]",> 100
15,"Cc1cc(C(F)(F)F)cc(O)c1-c1ccc(N[C@H]2CC[C@H]3CC[C@@H]2N3CCO)nn1 (single isomer, unassigned) [Ex 86a]",> 100
16,"Cc1cc(C(F)(F)F)cc(O)c1-c1ccc(N[C@H]2CC[C@H]3CC[C@@H]2N3C)nn1 (single isomer, unassigned) [Ex 85a]",> 100
17,"CN1CCC[C@@H](Nc2cc(C(F)(F)F)c(-c3ccc(Cl)cc3O)nn2)C1 [Ex 70, (R)-5-Chloro-2-(6-((1-methylpiperidin-3-yl)amino)-4-(trifluoromethyl)pyridazin-3-yl)phenol]",> 100
18,"Cc1cc(C(F)(F)F)cc(O)c1-c1ccc(O[C@@H]2CCCN(C)C2)nn1 [Ex 42, (R)-3-Methyl-2-(6-((1-methylpiperidin-3-yl)oxy)pyridazin-3-yl)-5-(trifluoromethyl)phenol]",> 100
19,"Cc1cc(N[C@@H]2CCCN(C)C2)nnc1-c1ccc(OC(F)(F)F)cc1O [Ex 82, (R)-2-(4-Methyl-6-((1-methylpiperidin-3-yl)amino)pyridazin-3-yl)-5-(trifluoromethoxy)phenol]",> 100

row,Structure (SMILES),IC50 [µM]
1,"Cc1cc(-c2c(C)cc(C(F)(F)F)cc2O)nnc1N[C@@H]1CCCNC1 [Ex 100, (R)-3-Methyl-2-(5-methyl-6-(piperidin-3-ylamino)pyridazin-3-yl)-5-(trifluoromethyl)phenol]",> 100
2,"Cc1cc(C(F)(F)F)cc(O)c1-c1ccc(N[C@@H]2CCCNC2)nn1 [Ex 74, (R)-3-Methyl-2-(6-(piperidin-3-ylamino)pyridazin-3-yl)-5-(trifluoromethyl)phenol]",> 100
3,"Cc1cc(N[C@@H]2CCCN(C)C2)nnc1-c1ccc(C(F)(F)F)cc1O [Ex 4, (R)-2-(4-Methyl-6-((1-methylpiperidin-3-yl)amino)pyridazin-3-yl)-5-(trifluoromethyl)phenol]",> 100
4,"Cc1c(N[C@@H]2CCCN(C)C2)nnc(-c2ccc(C(F)(F)F)cc2O)c1C [Ex 48, (R)-2-(4,5-Dimethyl-6-((1-methylpiperidin-3-yl)amino)pyridazin-3-yl)-5-(trifluoromethyl)phenol]",> 100
5,"CCN1CCC[C@@H](Nc2ccc(-c3c(C)cc(C(F)(F)F)cc3O)nn2)C1 [Ex 1, (R)-2-(6-((1-Ethylpiperidin-3-yl)amino)pyridazin-3-yl)-3-methyl-5-(trifluoromethyl)phenol]",> 100
6,"Cc1cc(C(F)(F)F)cc(O)c1-c1ccc(NC2CCC(C(F)(F)F)NC2)nn1 (centres unmarked) [Ex 62, 3-Methyl-5-(trifluoromethyl)-2-(6-((6-(trifluoromethyl)piperidin-3-yl)amino)pyridazin-3-yl)phenol]",> 100
7,"CN1CCC[C@@H](Nc2ccc(-c3c(O)cc(C(F)(F)F)cc3Cl)nn2)C1 [Ex 49, (R)-3-Chloro-2-(6-((1-methylpiperidin-3-yl)amino)pyridazin-3-yl)-5-(trifluoromethyl)phenol]",> 100
8,"Cc1cc(C(F)(F)F)cc(O)c1-c1nnc(N[C@@H]2CCCN(C)C2)c(C)c1C [Ex 40, 2-(4,5-Dimethyl-6-(((R)-1-methylpiperidin-3-yl)amino)pyridazin-3-yl)-3-methyl-5-(trifluoromethyl)phenol TFA-salt]",> 33
9,"Cc1cc(C(F)(F)F)cc(O)c1-c1ccc(N[C@@H]2CCCN(C[C@H](C)O)C2)nn1 [Ex 92a, 2-(6-(((R)-1-((S)-2-Hydroxypropyl)piperidin-3-yl)amino)pyridazin-3-yl)-3-methyl-5-(trifluoromethyl)phenol]",> 100
10,"Cc1cc(C(F)(F)F)cc(O)c1-c1ccc(Nc2cccnc2)nn1 [Ex 46, 3-Methyl-2-(6-(pyridin-3-ylamino)pyridazin-3-yl)-5-(trifluoromethyl)phenol]",> 100
11,"Cc1ccc(-c2nnc(N[C@@H]3CCCN(C)C3)cc2C(F)(F)F)c(O)c1 [Ex 50, (R)-5-Methyl-2-(6-((1-methylpiperidin-3-yl)amino)-4-(trifluoromethyl)pyridazin-3-yl)phenol]",> 100
12,"Cc1cc(-c2c(C)cc(C(F)(F)F)cc2O)nnc1N[C@@H]1CCCN(CCO)C1 [Ex 13, (R)-2-(6-((1-(2-Hydroxyethyl)piperidin-3-yl)amino)-5-methylpyridazin-3-yl)-3-methyl-5-(trifluoromethyl)phenol]",> 100
13,"CN1CCC[C@@H](Nc2ccc(-c3c(O)cc(Cl)cc3C(F)(F)F)nn2)C1 [Ex 51, (R)-5-Chloro-2-(6-((1-methylpiperidin-3-yl)amino)pyridazin-3-yl)-3-(trifluoromethyl)phenol]",> 100
14,"Cc1cc(C(F)(F)F)cc(O)c1-c1ccc(N[C@H]2CCCNC2)nn1 [Ex 33, (S)-3-Methyl-2-(6-(piperidin-3-ylamino)pyridazin-3-yl)-5-(trifluoromethyl)phenol]",> 100
15,"CCN1CCC[C@@H](Nc2nnc(-c3c(C)cc(C(F)(F)F)cc3O)cc2C#N)C1 [Ex 11, (R)-3-((1-Ethylpiperidin-3-yl)amino)-6-(2-hydroxy-6-methyl-4-(trifluoromethyl)phenyl)pyridazine-4-carbonitrile]",> 100
16,"Cc1cc(C(F)(F)F)cc(O)c1-c1ccc(N[C@@H]2CCCN[C@@H]2C)nn1 [Ex 91b, 3-Methyl-2-(6-(((2R,3R)-2-methylpiperidin-3-yl)amino)pyridazin-3-yl)-5-(trifluoromethyl) phenol]",> 100
17,"Cc1cc(C(F)(F)F)cc(O)c1-c1ccc(NC2CCCN(C(C)C)C2)nn1 (centres unmarked) [Ex 7, 2-(6-((1-Isopropylpiperidin-3-yl)amino)pyridazin-3-yl)-3-methyl-5-(trifluoromethyl)phenol]",> 100
18,"Cc1cc(C(F)(F)F)cc(O)c1-c1ccc(N[C@@H]2CCCN(CC(C)(C)O)C2)nn1 [Ex 80, (R)-2-(6-((1-(2-Hydroxy-2-methylpropyl)piperidin-3-yl)amino)pyridazin-3-yl)-3-methyl-5-(trifluoromethyl)phenol]",> 33
19,"CCN1CCC[C@@H](Nc2nnc(-c3c(C)cc(C(F)(F)F)cc3O)cc2C)C1 [Ex 101, (R)-2-(6-((1-Ethylpiperidin-3-yl)amino)-5-methylpyridazin-3-yl)-3-methyl-5-(trifluoromethyl)-phenol]",> 100
